In publication PMC4517520 (Drug Design, Development and Therapy, 2015):
Read-outs that look alike come from different tables or passages of the source. One block for each molecule: values may come before it.

Tests used:
[1] = tested on: EGFR; details: read-out: Potency [IC50], cited from earlier work
[2] = tested on: HER2; details: read-out: Potency [IC50]; PDB 3RCD; reference or ChEMBL geometric mean; cited from earlier work
[3] = tested on: MCF-7 cells; assay: Cell proliferation assay; assay type: cell-based; details: Homo sapiens, MCF7, 24 h, read-out: Cellular IC50 MCF-7
[4] = target: human EGFR cytoplasmic domain, dual T790M/L858R mutations (Homo sapiens, UniProt P00533, L858R/T790M); assay type: biochemical; details: in vitro
human EGFR cytoplasmic domain, dual T790M/L858R mutations, sequence (P00533 669-1210 T790M/L858R): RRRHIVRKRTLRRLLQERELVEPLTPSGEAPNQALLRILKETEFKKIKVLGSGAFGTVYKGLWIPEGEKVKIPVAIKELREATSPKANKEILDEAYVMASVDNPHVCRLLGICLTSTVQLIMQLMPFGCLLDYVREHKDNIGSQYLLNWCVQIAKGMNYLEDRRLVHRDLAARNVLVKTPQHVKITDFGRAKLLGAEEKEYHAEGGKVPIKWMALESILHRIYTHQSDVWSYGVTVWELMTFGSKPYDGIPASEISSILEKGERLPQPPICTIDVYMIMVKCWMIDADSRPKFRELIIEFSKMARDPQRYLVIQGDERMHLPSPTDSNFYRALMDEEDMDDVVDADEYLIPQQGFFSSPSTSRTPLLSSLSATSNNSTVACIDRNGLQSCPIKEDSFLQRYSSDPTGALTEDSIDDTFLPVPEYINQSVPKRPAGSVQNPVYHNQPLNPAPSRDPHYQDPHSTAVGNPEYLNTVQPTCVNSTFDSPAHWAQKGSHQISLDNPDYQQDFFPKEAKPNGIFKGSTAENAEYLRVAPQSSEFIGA

[5] = tested on: H1975 (T790M/L858R) cells; assay: Cell proliferation assay; assay type: cell-based; details: Homo sapiens, NCI-H1975, 24 h, read-out: Cellular IC50 H1975 (T790M/L858R)
[6] = tested on: A431 (wild-type) cells; assay: Cell proliferation assay; assay type: cell-based; details: Homo sapiens, A-431, 24 h, read-out: Cellular IC50 A431 (wild-type)
[7] = tested on: HER4; details: read-out: Potency [IC50]; PDB 3BBT; reference or ChEMBL geometric mean; cited from earlier work

SMILES: CN(C)C/C=C/C(=O)Nc1cc2c(Nc3ccc(F)c(Cl)c3)ncnc2cc1O[C@H]1CCOC1 [0WM]
IC50 ([1]; PDB 4G5J, reference or ChEMBL geometric mean): 0.5 nM

SMILES: COc1cc2ncnc(Nc3ccc(F)c(Cl)c3)c2cc1NC(=O)/C=C/CN1CCCCC1 [1C9]
IC50 ([1]; PDB 4I23, reference or ChEMBL geometric mean): 8.12 nM

SMILES: CC(C)(O)CC(=O)NCCn1ccc2ncnc(Nc3ccc(Oc4cccc(C(F)(F)F)c4)c(Cl)c3)c21 [03P]
IC50 ([1]; PDB 3POZ, reference or ChEMBL geometric mean): […] | IC50 [2]: 17 nM

IC50 [3]: 94 nM | more potency against EGFR T790M than the two control molecules erlotinib and gefitinib [4]: at least 30 fold | IC50 [5]: 127 nM | IC50 [6]: 41 nM
SMILES: CC(C)(O)CC(=O)NCCc1ccc2ncnc(Nc3ccc(Oc4cccc(C(F)(F)F)c4)c(Cl)c3)c2c1 [A-10, N-(2-(4-((3-Chloro-4-(3-(trifluoromethyl)phenoxy)phenyl)amino)quinazolin-6-yl)ethyl)-3-hydroxy-3-methylbutanamide]

SMILES: CCN1CCN(Cc2ccc(-c3cc4c(N[C@H](C)c5ccccc5)ncnc4[nH]3)cc2)CC1 [AEE]
IC50 ([1]; PDB 2J6M, reference or ChEMBL geometric mean): 10.9 nM

IC50 [3]: > 1000 nM | IC50 [6]: 62 nM
SMILES: C#Cc1cccc(Nc2ncnc3cc(OCCOC)c(OCCOC)cc23)c1 [Erlotinib, erlotinib]

SMILES: COc1cc2ncnc(Nc3ccc(F)c(Cl)c3)c2cc1OCCCN1CCOCC1 [IRE]
IC50 ([1]; PDB 2ITY, reference or ChEMBL geometric mean): 53.5 nM

SMILES: CN(C)CCC(=O)Nc1cccc(-c2c(-c3ccccc3)oc3ncnc(N[C@H](CO)c4ccccc4)c23)c1 [KJ8]
IC50 ([1]; PDB 4JQ8, reference or ChEMBL geometric mean): 8 nM

SMILES: OC[C@@H](Nc1ncnc2oc(-c3ccccc3)c(-c3ccccc3)c12)c1ccccc1 [KJQ]
IC50 ([1]; PDB 4JQ7, reference or ChEMBL geometric mean): 393 nM

SMILES: CN(C)CCCC(=O)Nc1cccc(-c2c(-c3ccccc3)oc3ncnc(N[C@H](CO)c4ccccc4)c23)c1 [KJV]
IC50 ([1]; PDB 4JRV, reference or ChEMBL geometric mean): 29 nM
